Patent US20180370927A1, “MICROBIOCIDAL OXADIAZOLE DERIVATIVES” (SYNGENTA PARTICIPATIONS AG, priority 2015, published 2018)

Experiments:
Phakopsora pachyrhizi = Phakopsora pachyrhizi / soybean / leaf disc preventative (Asian soybean rust); assay type: in vivo; conditions: foliar, 200 ppm in the applied formulation, soybean leaf disks, assessed 12 to 14 days after application, read-out: disease control compared to untreated control leaf disks
Protocol: Leaf disks or leaf segments of various plant species are cut from plants grown in a greenhouse. The cut leaf disks or segments are placed in multiwell plates (24-well format) onto water agar. The leaf disks are sprayed with a test solution before (preventative) or after (curative) inoculation. Compounds to be tested are prepared as DMSO solutions (max. 10 mg/mL) which are diluted to the appropriate concentration with 0.025% Tween20 just before spraying. The inoculated leaf disks or segments are incubated under defined conditions (temperature, relative humidity, light, etc.) according to the respective test system. A single evaluation of disease level is carried out 3 to 14 days after inoculation, depending on the pathosystem. Percent disease control relative to the untreated check leaf disks or segments is then calculated.
Example 3: Fungicidal Activity Against Phakopsora pachyrhizi/Soybean/Leaf Disc Preventative (Asian Soybean Rust)
Soybean leaf disks are placed on water agar in multiwell plates (24-well format) and sprayed with the formulated test compound diluted in water. One day after application leaf discs are inoculated by spraying a spore suspension on the lower leaf surface. After an incubation period in a climate cabinet of 24-36 hours in darkness at 20° C. and 75% relative humidity leaf disc are kept at 20° C. with 12 hours light/day and 75% relative humidity. The activity of a compound is assessed as percent disease control compared to untreated when an appropriate level of disease damage appears in untreated check leaf disks (12 to 14 days after application).
The following compounds at 200 ppm in the applied formulation give at least 80% disease control in this test when compared to untreated control leaf disks under the same conditions, which show extensive disease development.

[1] = tested on: Puccinia recondita f. Sp. Tritici; assay: Puccinia recondita f. sp. tritici / wheat / leaf disc curative (brown rust); assay type: in vivo; conditions: foliar, 200 ppm in the applied formulation, wheat leaf segments, curative (applied 1 day after inoculation), assessed 6 to 8 days after application, read-out: disease control compared to untreated control leaf disks
Outline: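 Wheat cv. Kanzler leaf segments on agar were inoculated with spores, kept dark at 19° C, 75% RH, then sprayed with diluted formulated compound 1 day after inoculation (curative). Incubation continued at 19° C, 75% RH, 12 h light/12 h dark, with percent disease control versus untreated scored 6 to 8 days after application.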

[2] = tested on: Puccinia recondita f. Sp. Tritici; assay: Puccinia recondita f. sp. tritici / wheat / leaf disc preventative (brown rust); assay type: in vivo; conditions: foliar, 200 ppm in the applied formulation, wheat leaf segments, preventative, assessed 7 to 9 days after application, read-out: disease control compared to untreated control leaf disks
Outline: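 Wheat cv. Kanzler leaf segments on agar sprayed with formulated compound in water, inoculated with rust spores 1 day later. Incubated at 19° C, 75% rh, 12 h light/12 h dark; percent disease control versus untreated scored 7 to 9 days after application; tested at 200 ppm.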

[3] = tested on: Glomerella lacenarium (Colletotrichum lacenarium); assay: Glomerella lacenarium (Colletotrichum lacenarium) liquid culture / cucumber / preventative (anthracnose); assay type: cell-based; conditions: 20 ppm in the applied formulation, liquid culture in PDB, 24° C., 3 to 4 days after application, read-out: disease control (inhibition of growth, photometric) compared to untreated control
Outline: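 Cryostored conidia in potato dextrose broth added to DMSO compound solution in microtiter plates, incubated at 24° C. Growth inhibition read photometrically 3 to 4 days after application, as percent control versus untreated check; compounds tested at 20 ppm.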

CCCC(=O)C(=O)N(CC)Cc1ccc(-c2noc(C(F)(F)F)n2)cc1 [Compound 1.19, N-ethyl-2-oxo-N-[[4-[5-(trifluoromethyl)-1,2,4-oxadiazol-3-yl]phenyl]methyl]pentanamide]
≥ 80%: pest or weed control at 200 ppm (Phakopsora pachyrhizi) | pest or weed control at 200 ppm [1] | pest or weed control at 200 ppm [2] | inhibition at 20 ppm [3]

CC(=O)C(=O)N(C)Cc1ccc(-c2noc(C(F)(F)F)n2)cc1 [Compound 1.20, N-methyl-2-oxo-N-[[4-[5-(trifluoromethyl)-1,2,4-oxadiazol-3-yl]phenyl]methyl]propanamide]
≥ 80%: pest or weed control at 200 ppm (Phakopsora pachyrhizi) | pest or weed control at 200 ppm [1] | pest or weed control at 200 ppm [2] | inhibition at 20 ppm [3]

CCCC(=O)C(=O)N(C)Cc1ccc(-c2noc(C(F)(F)F)n2)cc1 [Compound 1.21, N-methyl-2-oxo-N-[[4-[5-(trifluoromethyl)-1,2,4-oxadiazol-3-yl]phenyl]methyl]pentanamide]
≥ 80%: pest or weed control at 200 ppm (Phakopsora pachyrhizi) | pest or weed control at 200 ppm [1] | pest or weed control at 200 ppm [2] | inhibition at 20 ppm [3]

CCON(Cc1ccc(-c2noc(C(F)(F)F)n2)cc1)C(=O)C(=O)CC [Compound 1.29, N-ethoxy-2-oxo-N-[[4-[5-(trifluoromethyl)-1,2,4-oxadiazol-3-yl]phenyl]methyl]butanamide]
≥ 80%: pest or weed control at 200 ppm (Phakopsora pachyrhizi) | pest or weed control at 200 ppm [1] | pest or weed control at 200 ppm [2] | inhibition at 20 ppm [3]

CCCN(Cc1ccc(-c2noc(C(F)(F)F)n2)cc1)C(=O)C(=O)CC [Compound 1.31, 2-oxo-N-propyl-N-[[4-[5-(trifluoromethyl)-1,2,4-oxadiazol-3-yl]phenyl]methyl]butanamide]
≥ 80%: pest or weed control at 200 ppm (Phakopsora pachyrhizi) | pest or weed control at 200 ppm [1] | pest or weed control at 200 ppm [2] | inhibition at 20 ppm [3]

CCC(=O)C(=O)N(Cc1ccc(-c2noc(C(F)(F)F)n2)cc1)C(C)C [Compound 1.32]
≥ 80%: pest or weed control at 200 ppm (Phakopsora pachyrhizi) | pest or weed control at 200 ppm [1] | pest or weed control at 200 ppm [2] | inhibition at 20 ppm [3]

CCC(=O)C(=O)N(CCO)Cc1ccc(-c2noc(C(F)(F)F)n2)cc1 [Compound 1.33, N-(2-hydroxyethyl)-2-oxo-N-[[4-[5-(trifluoromethyl)-1,2,4-oxadiazol-3-yl]phenyl]methyl]butanamide]
≥ 80%: pest or weed control at 200 ppm (Phakopsora pachyrhizi) | pest or weed control at 200 ppm [1] | pest or weed control at 200 ppm [2] | inhibition at 20 ppm [3]

CON(Cc1ccc(-c2noc(C(F)(F)F)n2)cc1)C(=O)C(C)=O [Compound 1.36, N-methoxy-2-oxo-N-[[4-[5-(trifluoromethyl)-1,2,4-oxadiazol-3-yl]phenyl]methyl]propanamide]
≥ 80%: pest or weed control at 200 ppm (Phakopsora pachyrhizi) | pest or weed control at 200 ppm [1] | pest or weed control at 200 ppm [2] | inhibition at 20 ppm [3]

O=C(NCc1ccc(-c2noc(C(F)(F)F)n2)cc1F)C(=O)c1ccccc1 [Compound 1.37, N-[[2-fluoro-4-[5-(trifluoromethyl)-1,2,4-oxadiazol-3-yl]phenyl]methyl]-2-oxo-2-phenyl-acetamide]
≥ 80%: pest or weed control at 200 ppm (Phakopsora pachyrhizi) | pest or weed control at 200 ppm [1] | pest or weed control at 200 ppm [2] | inhibition at 20 ppm [3]

CC(C)CC(=O)C(=O)NCc1ccc(-c2noc(C(F)(F)F)n2)cc1F [Compound 1.38, N-[[2-fluoro-4-[5-(trifluoromethyl)-1,2,4-oxadiazol-3-yl]phenyl]methyl]-4-methyl-2-oxo-pentanamide]
≥ 80%: pest or weed control at 200 ppm (Phakopsora pachyrhizi) | pest or weed control at 200 ppm [1] | pest or weed control at 200 ppm [2] | inhibition at 20 ppm [3]

O=C(NCc1ccc(-c2noc(C(F)(F)F)n2)cc1F)C(=O)c1cccs1 [Compound 1.39, N-[[2-fluoro-4-[5-(trifluoromethyl)-1,2,4-oxadiazol-3-yl]phenyl]methyl]-2-oxo-2-(2-thienyl)acetamide]
≥ 80%: pest or weed control at 200 ppm (Phakopsora pachyrhizi) | pest or weed control at 200 ppm [1] | pest or weed control at 200 ppm [2] | inhibition at 20 ppm [3]

CC(C)(C)C(=O)C(=O)NCc1ccc(-c2noc(C(F)(F)F)n2)cc1F [Compound 1.40, N-[[2-fluoro-4-[5-(trifluoromethyl)-1,2,4-oxadiazol-3-yl]phenyl]methyl]-3,3-dimethyl-2-oxo-butanamide]
≥ 80%: pest or weed control at 200 ppm (Phakopsora pachyrhizi) | pest or weed control at 200 ppm [1] | pest or weed control at 200 ppm [2] | inhibition at 20 ppm [3]

CCC(=O)C(=O)NCc1ccc(-c2noc(C(F)(F)F)n2)cc1F [Compound 1.41, N-[[2-fluoro-4-[5-(trifluoromethyl)-1,2,4-oxadiazol-3-yl]phenyl]methyl]-2-oxo-butanamide]
≥ 80%: pest or weed control at 200 ppm (Phakopsora pachyrhizi) | pest or weed control at 200 ppm [1] | pest or weed control at 200 ppm [2] | inhibition at 20 ppm [3]

CC(C)CC(=O)C(=O)NCc1ccc(-c2noc(C(F)(F)F)n2)c(F)c1 [Compound 1.43, N-[[3-fluoro-4-[5-(trifluoromethyl)-1,2,4-oxadiazol-3-yl]phenyl]methyl]-4-methyl-2-oxo-pentanamide]
≥ 80%: pest or weed control at 200 ppm (Phakopsora pachyrhizi) | pest or weed control at 200 ppm [1] | pest or weed control at 200 ppm [2] | inhibition at 20 ppm [3]

O=C(NCc1ccc(-c2noc(C(F)(F)F)n2)c(F)c1)C(=O)c1cccs1 [Compound 1.44, N-[[3-fluoro-4-[5-(trifluoromethyl)-1,2,4-oxadiazol-3-yl]phenyl]methyl]-2-oxo-2-(2-thienyl)acetamide]
≥ 80%: pest or weed control at 200 ppm (Phakopsora pachyrhizi) | pest or weed control at 200 ppm [1] | pest or weed control at 200 ppm [2] | inhibition at 20 ppm [3]

CC(C)(C)C(=O)C(=O)NCc1ccc(-c2noc(C(F)(F)F)n2)c(F)c1 [Compound 1.45, N-[[3-fluoro-4-[5-(trifluoromethyl)-1,2,4-oxadiazol-3-yl]phenyl]methyl]-3,3-dimethyl-2-oxo-butanamide]
≥ 80%: pest or weed control at 200 ppm (Phakopsora pachyrhizi) | pest or weed control at 200 ppm [1] | pest or weed control at 200 ppm [2] | inhibition at 20 ppm [3]

CC(C)CC(=O)C(=O)NCc1ccc(-c2noc(C(F)(F)F)n2)c(F)c1F [Compound 1.47, N-[[2,3-difluoro-4-[5-(trifluoromethyl)-1,2,4-oxadiazol-3-yl]phenyl]methyl]-4-methyl-2-oxo-pentanamide]
≥ 80%: pest or weed control at 200 ppm (Phakopsora pachyrhizi) | pest or weed control at 200 ppm [1] | pest or weed control at 200 ppm [2] | inhibition at 20 ppm [3]
